Experimental data taken from patent US20200129495A1 (BioPharmX, Inc., priority 2018, published 2020).
Read-outs that look alike come from different tables or passages of the source.

Key:
male C57BL/6J mice [1] = conditions: topical 2.5 mg/cm^2 daily, 5 weeks; monitored throughout the study
Description: The modified Draize test is an acute erythema test carried out as follows. A C57BL/6J mouse is shaved in an application area, and the application area allowed to rest for approximately 24 hours and then rinsed with non-irritating soap. A test composition is applied evenly, without significant rubbing, to a 12 cm^2 area of the mouse's skin in a volume of 2.5 mg/cm^2. The sample is allowed to sit uncovered for 24 hours. After 24 hours, the application area is washed gently with lx phosphate buffered saline (1×PBS) and non-irritating soap to facilitate observation of the application area. The application area is then scored according to the following scale: 0=no evidence of erythema; 1=minimal erythema, barely perceptible; 2=definite erythema, readily visible, minimal edema or minimal popular response; 3=erythema and papules; 4=definite edema; 5=erythema, edema, and papules; 6=vesicular eruption; 7=strong reaction spreading beyond test site.
The skin surface of the shaved patch was wiped clean with phosphate buffer saline (1×PBS). Mice were left to acclimate overnight. […]
Clinical signs such as behavior were monitored throughout the study. […] The patch area was assessed for signs of erythema using the modified Draize scoring system and dryness every other day throughout the study period.

[2] = Stability of ebastine in ethanol composition at 40° C.; assay type: physicochemical; conditions: over the tested period (2 months)
[3] = Description: Addition of the solvent was repeated until the test material was completely dissolved, resulting in a visually clear solution.
male C57BL/6J mice [4] = conditions: 2% (w/w) ebastine in ethanol/propylene glycol, topical 2.5 mg/cm^2 daily
Description: Penetration into the skin was assessed in a sample size of three male mice.
The skin surface of the shaved patch was wiped clean with phosphate buffer saline (1×PBS). Mice were left to acclimate overnight.
For five weeks, the test composition was applied daily at a dose of 2.5 mg/cm^2 using a positive displacement pipette and carefully spread in the 12 cm^2 test area using a clean metal spatula.
At the end of the 5-week study period, 10 hairs from each site were plucked from the upper-middle, middle, and lower-middle patch area of each of the mice. In addition, 10 hairs were plucked from outside the patch area for each of the mice in the nontreatment group. The length of each of the plucked hairs was measured with a microcaliper and the resulting values were averaged.
In the study (as described supra), mice were shaved while in the telogen phase. Shaving stimulated hair growth by inducing the transition from rest (telogen phase) to growth (anagen phase). The shaved patch area for each mouse was observed daily for anagen onset, i.e., the first day of the anagen phase of the hair cycle.

[5] = remark: listed apart in the source
Description: The pH of each suspension was determined using a pH meter (Orion Star A111, Thermo Scientific, Waltham, Mass.). Following, the pH of each suspension was adjusted with acid 1N HCl to the target pH. A 2 milliliter (mL) sample of the liquid portion of the mixture (supernatant) was removed from the top of each vial and spun in a micro-centrifuge (Eppendorf Minispin, Hamburg Germany) at 12,000 rpm for 2 minutes.
A 10 microliter (μL) sample was injected into a high-performance liquid chromatography machine (HPLC) (Agilent, Santa Clara, Calif.). […] The HPLC system also used a guard column (Phenomenex, Inc.) and a mobile phase consisting of a base solvent of 70 percent (v/v) methanol (Spectrum Chemicals, Gardena, Calif.), and 30 percent (v/v) 40 mM potassium phosphate buffer, pH 4.0 (Spectrum Chemicals, Gardena, Calif.). The HPLC flow rate was 1 mL per minute with a column temperature of 40 degrees centigrade, a detection wavelength of 262 nanometers (nm), and a runtime of at least 15 minutes.

SMILES: CC(C)(C)c1ccc(C(=O)CCCN2CCC(OC(c3ccccc3)c3ccccc3)CC2)cc1 [Ebastine, 1-[4-(1,1-dimethylethyl)phenyl]-4-[4-(diphenylmethoxy)-1-piperidinyl]-1-butanone]
- clinical signs: behavior (male C57BL/6J mice [1]): No abnormal behavior
- stability of ebastine in ethanol [2]: stable
- EBASTINE SOLUBILITY AT ROOM TEMP ([3]; Benzyl Benzoate): >45.0 mg/g
- EBASTINE SOLUBILITY AT ROOM TEMP ([3]; Diethyl Sebacate): 120.6 mg/g
- EBASTINE SOLUBILITY AT ROOM TEMP ([3]; Diethylene Glycol Monoethyl Ether): 33.9 mg/g
- EBASTINE SOLUBILITY AT ROOM TEMP ([3]; Dimethyl Succinate): 0.47 mg/g
- EBASTINE SOLUBILITY AT ROOM TEMP ([3]; Ethyl Acetate): 245.2 mg/g
- EBASTINE SOLUBILITY AT ROOM TEMP ([3]; Methylpyrrolidone): >23.1 mg/g
- EBASTINE SOLUBILITY AT ROOM TEMP ([3]; Triacetin): <1.1 mg/g
- amount of ebastine soluble in 1 gram of diethyl sebacate ([3]; in 1 gram of diethyl sebacate): approximately 120.6 mg
- time to significant anagen induction (average) (male C57BL/6J mice [4]; mice shaved in telogen phase): 10 days
- total average patch coverage with hair (male C57BL/6J mice [4]; study end, after 5 weeks): 90 % of the total patch area
- solubility class in 9:1 ethanol:water ([5]; pH range of from 2 to 6): soluble (solubility of 33.3 mg/g or greater)
- solubility class in 9:1 ethanol:water ([5]; pH values above 6, such as 7 to 10): at least sparingly soluble (solubility of 10.0 mg/g or greater)
- Ebastine Solubility in 90:10 Ethanol:Water ([5]; pH 2.3, room temperature): 30.38 (mg/g)
- Ebastine Solubility in 90:10 Ethanol:Water ([5]; pH 6.16, room temperature): 33.35 (mg/g)
- Ebastine Solubility in 90:10 Ethanol:Water ([5]; pH 7.76, room temperature): 16.58 (mg/g)
- Ebastine Solubility in 90:10 Ethanol:Water ([5]; pH 9.90, room temperature): 15.3 (mg/g)
- solubility in ethanol and water mixture compared with ethanol alone or water alone ([5]; pH less than about 7, such as 2.3 to 6.2): exceeded
- solubility of ebastine in water alone ([5]; water alone, useful pH ranges): less than 2 mg/g
- Ebastine Solubility in water ([5]; pH 3.04, room temperature): 1.4 (mg/g)
- Ebastine Solubility in water ([5]; pH 5.06, room temperature): 0 (mg/g)
- Ebastine Solubility in water ([5]; pH 6.91, room temperature): 0 (mg/g)
- solubility class in water ([5]; pH below 5.0, such as 3.0 to 5.0): slightly soluble (solubility of 1.0 to 10.0 mg/g)
- solubility class in water ([5]; pH in the range of 5 to 7, room temperature): insoluble (solubility of less than 1.0 mg/g)
- solubility class in water ([5]; pH values of 5 and above): insoluble (solubility of less than 1.0 mg/g)
